Source: EP0421419A2, “Tocotrienols in the treatment of hypercholesterolemia, hyperlipidemia and thromboembolic disorders” (Bristol-Myers Squibb Company, priority 1989, dated 1991)
Values after ≈ are worked out from the molar mass of the structure shown. Read-outs that look alike come from different tables or passages of the source.

Tests used:
[1] = system: Cholesterol Synthesis in Isolated Rat Hepatocytes; experiment: Rat hepatocyte cholesterol biosynthesis model (14C-acetate incorporation into digitonin-precipitable sterols); assay type: cell-based; details: for inhibition at 125 µg/mL / inhibition at 250 µg/mL / inhibition at 500 µg/mL / IC50: Rattus norvegicus, Hepatocyte, 45 min preincubation, 30 min incorporation
Method: Primary rat parenchymal hepatocytes were prepared from male Wistar rats (180-220 g) at mid-dark in the diurnal cycle by standard collagenase perfusion method as described previously. Ingebritsen et al. J. Biol. Chem., 254: 9986-9989, (1979). Aliquots of cells were suspended (100 mg in 2 ml) in Eagle's minimum essential medium (MEM) supplemented with 2% bovine albumin, and preincubated in a shaking water bath at about 37° under 95% O₂/5% CO₂ with compounds added as given in the data. […] Following a preincubation of about 15 to about 45 minutes as indicated, cholesterol synthesis in intact cells was assayed by 2-14C-acetate (1.8 mCi/mmol, 0.5 µCi/ml) incorporation for about 30 to about 60 minutes (previously shown to be time-linear) into total digitonin-precipitable sterols. […] Percent inhibition was calculated from the average of duplicates vs. triplicate vehicle controls conducted simultaneously.
The primary rat hepatocyte assay for cholesterol bio-synthesis inhibition was conducted as described in Example 2 except the preincubation was about 45 minutes and the 14C-acetate incorporation was about 30 minutes. The indicated compounds were purified from the same natural product source as the mixture used in Example 2. […] Two-component mixtures of the constituents separated from the tocotrienol mixture were tested under the conditions indentical to Table 2A.

Lipid Metabolism [2] = experiment: Lipid metabolism in genetically hypercholesterolemic swine fed compound in diet; assay type: in vivo; details: 4 weeks; for Serum Cholesterol: 75 ppm in corn-soybean meal control diet, control 406.7(±12.8); for HDL-Cholesterol [% of Control] / LDL-Cholesterol [% of Control] / Serum Cholesterol [% of Control] / Serum Triglycerides [% of Control] / HDL/LDL / HDL-Cholesterol / Serum Triglycerides / LDL-Cholesterol: 75 ppm in diet; for HDL/LDL: control 0.078; for HDL-Cholesterol: control 28.8(±1.1); for Serum Triglycerides: control 67.9(±2.8); for LDL-Cholesterol: control 367.1(±15.7)
Text: Genetically hypercholesterolemic swine (3 per group) were fed for four weeks on either a standard corn-soybean-based control diet or an experimental diet. The experimental diet consisted of the standard mix containing either gamma-tocotrienol or delta-tocotrienol at 75 ppm. The same protocol used for the chicken study was used for the swine group, except HMG-CoA reductase levels were not determined in this case. […] The HDL/LDL atherogenic index as before improved dramatically with drug treatment (Table 7).

[3] = system: Cholesterol Synthesis in HepG2 Cells; experiment: HepG2 cell culture model, 14C-acetate incorporation assay; assay type: cell-based, human; details: Homo sapiens, HepG2; 10 µM, about 4 hours; read-out: % Inhibition 14C-Ac
Method: HepG2 cells obtained from the American Type Culture Collection were routinely passaged in RPMI-1640 plus 10% fetal bovine serum (FBS) and were subcultured into 35 mm diameter wells for experiments. […] The LDS medium supplement was prepared according to Cham et al., J. Lipid Res., 17: 176-181, (1976). After about 16 hours in LDS containing media, test compounds were added in dimetthylsulfoxide vehicle (0.5% v/v final conc.) for the period of time indicated in the data (generally 4 hours). Cholesterol synthesis was then directly determined by the incorporation of 2-14C-acetate (1.8-3.0 mCi/mmol) into digitonin-precipitable sterols essentially as described for the rat hepatocyte methol above. Greater than 97% of the radiolabelled sterol isolated by this procedure was cholesterol as judged by HPLC. Percent inhibition was calculated from the average of duplicates or triplicates vs. controls receiving vehicle.
The human hepatoma HepG2 cell culture model was employed to compare the intrinsic activities of the tocotrienols. HepG2 cells were incubated with the indicated compounds for about 4 hours at 10 µM. Cholestrol synthesis was assayed by 14C-acetate incorporation and HMG-CoA reductase suppression was assayed in the isolated microsomal fraction. Cholesterol synthesis inhibition was assayed by 14C-acetate incorporation after preincubation of HepG2 cells with the compounds for about 2 hours or about 4 hours (Example IV). […] As the data in Figure 1 indicate, gamma-tocotrienol has an even greater relative potency compared to alpha-tocotrienol in the HepG2 cell model than in rat hepatocytes. The IC50s from these studies are given in Table 3, in which it can be seen that the intrinsic potency of gamma-tocotrienol is over 30-fold greater than that of alpha-tocotrienol.

Lipid Metabolism [4] = experiment: Lipid metabolism in normocholesterolemic chickens fed compound in diet; assay type: in vivo; details: 20 ppm in corn control diet, 4 weeks; for HDL/LDL: control 1.413; for LDL-Cholesterol: control 76.0(±5.3); for HDL-Cholesterol: control 107.4(±7.0); for Serum Triglycerides: control 115.2(±13); for Serum Cholesterol: control 197.0(±5.2)
Method: (§1) Natural gamma-tocotrienol and delta-tocotrienol were evaluated for their hypocholesterolemic action in normocholesterolemic chickens and genetically hypercholesterolemic swine. Newborn male chicks (10 for each group) were raised on a standard corn-soybean-based control diet for two weeks and then were switched to either control or experimental diets for four weeks. Drug treatment consisted of the addition of gamma-tocotrienol or delta-tocotrienol to the corn-soybean-based diet at a concentration of 20 ppm. At the end of the feeding period, all the birds were fasted (about 36 hours) and refed (about 48 hours) to induce cholesterolgenic emzymes prior to sacrifice. The specific activity of HMG-CoA reductase, total serum cholesterol levels, HDL/LDL cholesterol pools, and serum triglyceride levels were examined (Table 5).
Similarly, synthetic gamma-tocotrienol was administered to male chicks at 50 ppm using the same protocol except HMG-CoA reductase levels were not determined.

HMG-CoA reductase = HMG-CoA reductase specific activity in chickens fed compound in diet; assay type: in vivo; details: 20 ppm in corn control diet, 4 weeks; for HMG-CoA Reductase Specific Acticity: 6-week old male chickens, control 1086.9(±114.0)
Method: as §1

SMILES | Serum Cholesterol (Lipid Metabolism [2]) | HDL-Cholesterol [% of Control] (Lipid Metabolism [2]) | LDL-Cholesterol [% of Control] (Lipid Metabolism [2]) | Serum Cholesterol [% of Control] (Lipid Metabolism [2]) | Serum Triglycerides [% of Control] (Lipid Metabolism [2]) | HDL/LDL (Lipid Metabolism [2]) | HDL-Cholesterol (Lipid Metabolism [2]) | Serum Triglycerides (Lipid Metabolism [2]) | LDL-Cholesterol (Lipid Metabolism [2]) | inhibition at 10 µM [3] | HDL-Cholesterol [% of Control] (Lipid Metabolism [4]) | LDL-Cholesterol [% of Control] (Lipid Metabolism [4]) | Serum Cholesterol [% of Control] (Lipid Metabolism [4]) | Serum Triglycerides [% of Control] (Lipid Metabolism [4]) | HDL/LDL (Lipid Metabolism [4]) | LDL-Cholesterol (Lipid Metabolism [4]) | HDL-Cholesterol (Lipid Metabolism [4]) | Serum Triglycerides (Lipid Metabolism [4]) | Serum Cholesterol (Lipid Metabolism [4]) | HMG-CoA Reductase Specific Acticity [% of Control] (HMG-CoA reductase) | also measured
CC(C)=CCC/C(C)=C/CC/C(C)=C/CC[C@]1(C)CCc2cc(O)c(C)c(C)c2O1 [d-γ-tocotrienol] | 212.8(±9.0) mg/dl | 104.5% | 46.0% | 51.3% | 76.4% | 0.172 | 29.8(±2.9) mg/dl | 50.9(±3.1) mg/dl | 172.8(±7.1) mg/dl | 78% | 95.3% | 56.7% | 76.4% | 82.8% | 1.669 | 43.1(±8.3) mg/dl | 102.3(±4.5) mg/dl | 95.4(±5.9) mg/dl | 150.5(±4.2) mg/dl | 45.5% | inhibition at 125 µg/mL ([1]; read-out: % Inhibition at µg/ml conc: 125, 125 µg/ml, Expt. # 2): 28%; inhibition at 250 µg/mL ([1]; read-out: % Inhibition at µg/ml conc: 250, 250 µg/ml, Expt. # 1): 48%; inhibition at 250 µg/mL ([1]; read-out: % Inhibition at µg/ml conc: 250, 250 µg/ml, Expt. # 2): 34%; inhibition at 500 µg/mL ([1]; read-out: % Inhibition at µg/ml conc: 500, 500 µg/ml, Expt. # 1): 60%; inhibition at 500 µg/mL ([1]; read-out: % Inhibition at µg/ml conc: 500, 500 µg/ml, Expt. # 2): 61%; IC50 ([1]; read-out: IC₅₀, Expt. # 1): 270 µg/mL (≈ 658 µM); IC50 ([1]; read-out: IC₅₀, Expt. # 2): 360 µg/mL (≈ 877 µM); HMG-CoA Reductase Specific Acticity (HMG-CoA reductase): 494.2(±22.9)
CC(C)=CCC/C(C)=C/CC/C(C)=C/CC[C@]1(C)CCc2cc(O)cc(C)c2O1 [d-δ-tocotrienol] | 214.9(±18.6 mg/dl | 105.3% | 44.8% | 47.7% | 70.3% | 0.189 | 34.4(±1.9) mg/dl | 44.4(±1.3) mg/dl | 182.2(±8.2) mg/dl | 79% | 91.9% | 53.7% | 71.5% | 77.0% | 2.419 | 40.8(±6.6) mg/dl | 98.7(±8.4) mg/dl | 88.7(±7.3) mg/dl | 140.9(±3.1) mg/dl | 50.6% | inhibition at 125 µg/mL ([1]; 125 µg/ml, Expt. # 2, read-out: % Inhibition at µg/ml conc: 125): 26%; inhibition at 250 µg/mL ([1]; 250 µg/ml, Expt. # 1, read-out: % Inhibition at µg/ml conc: 250): 49%; inhibition at 250 µg/mL ([1]; 250 µg/ml, Expt. # 2, read-out: % Inhibition at µg/ml conc: 250): 33%; inhibition at 500 µg/mL ([1]; 500 µg/ml, Expt. # 1, read-out: % Inhibition at µg/ml conc: 500): 62%; inhibition at 500 µg/mL ([1]; 500 µg/ml, Expt. # 2, read-out: % Inhibition at µg/ml conc: 500): 63%; IC50 ([1]; Expt. # 1, read-out: IC₅₀): 260 µg/mL (≈ 656 µM); IC50 ([1]; Expt. # 2, read-out: IC₅₀): 340 µg/mL (≈ 857 µM); times more active than alpha-tocotrienol ([1]; rat and chicken hepatocyte system): at least 5 times; HMG-CoA Reductase Specific Acticity (HMG-CoA reductase): 550.2(±33.8)
